Results taken from paper PMC10648349, “Aromatic Diboronic Acids as Effective KPC/AmpC Inhibitors” (Molecules, 2023).
≈ marks a conversion by molar mass, not a printed value.

How the values were obtained:
[1] = test system: K. pneumoniae ATCC 700603 ESBL-positive; assay: combination disc test CDT-ESBL; assay type: cell-based; settings: Klebsiella pneumoniae, ATCC700603, read-out: Diameter of inhibition zone, CAZ-30 disc with agent; for zone of inhibition at 300 µg/disc: agent 0.3 mg per disc
[2] = test system: C. parapsilosis ATCC 22019; assay: antifungal activity (disc-diffusion, MIC, MFC); assay type: cell-based, Candida parapsilosis; settings: Lodderomyces parapsilosis, ATCC22019; for zone of inhibition at 0.4 mg/disc: 0.4 mg per disc, 9 mm disc (fluconazole 0.025 mg, 6 mm disc), - no zone, read-out: Diameter of inhibition zone; for MIC: fluconazole by Etest
Procedure, shortened: (§1)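 EUCAST/CLSI methods: disc diffusion at 0.4 mg compound/disc, broth MIC, then MBC (bacteria) or MFC (yeast). DMSO vehicle.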

C. krusei ATCC 6258 = assay: antifungal activity (disc-diffusion, MIC, MFC); assay type: cell-based, Candida krusei; settings: Pichia kudriavzevii, ATCC6258; for zone of inhibition at 0.4 mg/disc: 0.4 mg per disc, 9 mm disc (fluconazole 0.025 mg, 6 mm disc), - no zone, read-out: Diameter of inhibition zone; for MIC: fluconazole by Etest
Procedure, shortened: as §1

[3] = MTT-based viability assay; assay type: cell-based; settings: human, MRC-5 human fibroblasts, 72 h; for viability at 72 h, 12.5 mg/L / viability at 72 h, 25 mg/L / viability at 72 h, 50 mg/L: read-out: Viability of MRC-5 cells (% of viable cells ± SD)
Procedure, shortened: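 Percent viable cells relative to control, measured in triplicate by MTT read-out at 570 nm. Cells: MRC-5 human fibroblasts cultured at 37 °C, 5% CO2 in MEME plus 10% FBS.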

[4] = test system: E. coli 77 CMY-2-positive; assay: combination disc test CDT-AmpC; assay type: cell-based; settings: Escherichia coli, read-out: Diameter of inhibition zone, CAZ-30 disc with agent; for zone of inhibition at 300 µg/disc: agent 0.3 mg per disc
C. tropicalis IBA 171 = assay: antifungal activity (disc-diffusion, MIC, MFC); assay type: cell-based; settings: Candida tropicalis, IBA171; for zone of inhibition at 0.4 mg/disc: 0.4 mg per disc, 9 mm disc (fluconazole 0.025 mg, 6 mm disc), - no zone, read-out: Diameter of inhibition zone; for MIC: fluconazole by Etest
Procedure, shortened: as §1

S. cerevisiae ATCC 9763 = assay: antifungal activity (disc-diffusion, MIC, MFC); assay type: cell-based; settings: Saccharomyces cerevisiae, ATCC9763; for zone of inhibition at 0.4 mg/disc: 0.4 mg per disc, 9 mm disc (fluconazole 0.025 mg, 6 mm disc), - no zone, read-out: Diameter of inhibition zone; for MIC: fluconazole by Etest
Procedure, shortened: as §1

C. albicans ATCC 90028 = assay: antifungal activity (disc-diffusion, MIC, MFC); assay type: cell-based; settings: Candida albicans, ATCC90028; for zone of inhibition at 0.4 mg/disc: 0.4 mg per disc, 9 mm disc (fluconazole 0.025 mg, 6 mm disc), - no zone, read-out: Diameter of inhibition zone; for MIC: fluconazole by Etest
Procedure, shortened: as §1

C. tropicalis ATCC 750 = assay: antifungal activity (disc-diffusion, MIC, MFC); assay type: cell-based; settings: Candida tropicalis, ATCC750; for zone of inhibition at 0.4 mg/disc: 0.4 mg per disc, 9 mm disc (fluconazole 0.025 mg, 6 mm disc), - no zone, read-out: Diameter of inhibition zone; for MIC: fluconazole by Etest
Procedure, shortened: as §1

B. subtilis ATCC 6633 = assay: direct antimicrobial activity (disc-diffusion); assay type: cell-based; settings: Bacillus subtilis, ATCC6633; 0.4 mg per disc, 9 mm disc (linezolid 0.03 mg, 6 mm disc); - no zone; read-out: Diameter of inhibition zone
Procedure, shortened: as §1

[5] = test system: P. aeruginosa MUW 700 AmpC(+); assay: MIC of tested agent alone, microdilution; assay type: cell-based; settings: Pseudomonas aeruginosa; read-out: MIC of agent alone
Procedure, shortened: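 MICs of the agents alone were determined by broth microdilution. In checkerboard plates, β-lactams (1–64 mg/L) were combined with the agents or PBA at 4–16 mg/L, and antibiotic MICs were read at each agent concentration. FICI was calculated at the growth/no-growth interface.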

[6] = test system: S. aureus ATCC 43300 MRSA; assay: direct antimicrobial activity (disc-diffusion, MIC, MBC); assay type: cell-based; settings: Staphylococcus aureus; for zone of inhibition at 0.4 mg/disc: 0.4 mg per disc, 9 mm disc (linezolid 0.03 mg, 6 mm disc), - no zone, read-out: Diameter of inhibition zone
Procedure, shortened: as §1

S. aureus ATCC 6538P = assay: as above; assay type: cell-based; settings: Staphylococcus aureus, ATCC6538P; for zone of inhibition at 0.4 mg/disc: 0.4 mg per disc, 9 mm disc (linezolid 0.03 mg, 6 mm disc), - no zone, read-out: Diameter of inhibition zone
Procedure, shortened: as §1

[7] = test system: S. epidermidis ATCC 12228; assay: as above; assay type: cell-based; settings: Staphylococcus epidermidis, ATCC12228; for zone of inhibition at 0.4 mg/disc: 0.4 mg per disc, 9 mm disc (linezolid 0.03 mg, 6 mm disc), - no zone, read-out: Diameter of inhibition zone
Procedure, shortened: as §1

E. faecium ATCC 6057 = assay: as above; assay type: cell-based; settings: Enterococcus faecium, ATCC6057; for zone of inhibition at 0.4 mg/disc: 0.4 mg per disc, 9 mm disc (linezolid 0.03 mg, 6 mm disc), - no zone, read-out: Diameter of inhibition zone
Procedure, shortened: as §1

E. faecalis ATCC 29212 = assay: as above; assay type: cell-based; settings: Enterococcus faecalis, ATCC29212; for zone of inhibition at 0.4 mg/disc: 0.4 mg per disc, 9 mm disc (linezolid 0.03 mg, 6 mm disc), - no zone, read-out: Diameter of inhibition zone
Procedure, shortened: as §1

[8] = test system: K. pneumoniae ATCC BAA 1705 KPC-2-positive; assay: combination disc test CDT-KPC; assay type: cell-based; settings: Klebsiella pneumoniae, BAA1705, read-out: Diameter of inhibition zone, MEM-10 disc with agent; for zone of inhibition at 300 µg/disc: agent 0.3 mg per disc

SMILES | zone of inhibition at 0.4 mg/disc [2] | MIC [2] | MIC (C. krusei ATCC 6258) | viability at 72 h, 12.5 mg/L [3] | viability at 72 h, 25 mg/L [3] | viability at 72 h, 50 mg/L [3] | MIC (C. tropicalis IBA 171) | MIC (S. cerevisiae ATCC 9763) | MIC (C. albicans ATCC 90028) | MIC (C. tropicalis ATCC 750) | zone of inhibition at 0.4 mg/disc (B. subtilis ATCC 6633) | MIC [6] | zone of inhibition at 0.4 mg/disc [6] | MIC (S. aureus ATCC 6538P) | zone of inhibition at 0.4 mg/disc (S. aureus ATCC 6538P) | MIC [7] | zone of inhibition at 0.4 mg/disc [7] | MIC (E. faecium ATCC 6057) | zone of inhibition at 0.4 mg/disc (E. faecium ATCC 6057) | MIC (E. faecalis ATCC 29212) | other results
OB(O)c1cc(Br)c(B(O)O)cc1Br [1i] | 24 mm | 50 µg/mL (≈ 155 µM) | 50 µg/mL (≈ 155 µM) | 122% | 114 ± 4.8% | 101.4 ± 0.9% | 25 µg/mL (≈ 77.3 µM) | 50 µg/mL (≈ 155 µM) | 12.5 µg/mL (≈ 38.6 µM) | 50 µg/mL (≈ 155 µM) | 18 mm | 100 µg/mL (≈ 309 µM) | 11 mm | 25 µg/mL (≈ 77.3 µM) | 14 mm | 50 µg/mL (≈ 155 µM) | 21 mm | 200 µg/mL (≈ 618 µM) | 11 mm | 200 µg/mL (≈ 618 µM) | zone of inhibition at 100 µg/disc ([1]; agent 0.1 mg per disc): 14 mm; zone of inhibition at 0.4 mg/disc (C. krusei ATCC 6258): 22 mm; zone of inhibition at 100 µg/disc ([4]; agent 0.1 mg per disc): 16 mm; zone of inhibition at 0.4 mg/disc (C. tropicalis IBA 171): 29 mm; zone of inhibition at 0.4 mg/disc (S. cerevisiae ATCC 9763): 24 mm; zone of inhibition at 0.4 mg/disc (C. albicans ATCC 90028): 31 mm; zone of inhibition at 0.4 mg/disc (C. tropicalis ATCC 750): 25 mm; MIC [5]: > 400 µg/mL; zone of inhibition at 0.4 mg/disc (E. faecalis ATCC 29212): 14 mm; zone of inhibition at 100 µg/disc ([8]; agent 0.1 mg per disc): 6 mm
O=Cc1cc(F)ccc1B(O)O [7b] | 17 mm | 12.5 µg/mL (≈ 74.4 µM) | 25 µg/mL (≈ 149 µM) | 48.9 ± 3.8% | 6.4 ± 1.4% | 0.9 ± 0.7% | 50 µg/mL (≈ 298 µM) | 6.25 µg/mL (≈ 37.2 µM) | 6.25 µg/mL (≈ 37.2 µM) | 50 µg/mL (≈ 298 µM) | 22 mm | 50 µg/mL (≈ 298 µM) | 20 mm | 50 µg/mL (≈ 298 µM) | 19 mm | 50 µg/mL (≈ 298 µM) | 30 mm | 200 µg/mL (≈ 1190 µM) | 14 mm | 200 µg/mL (≈ 1190 µM) | zone of inhibition at 0.4 mg/disc (C. krusei ATCC 6258): 28 mm; viability at 72 h ([3]; 12.5, 25 and 50 mg/L): 0 to 56.4%; zone of inhibition at 0.4 mg/disc (C. tropicalis IBA 171): 22 mm; zone of inhibition at 0.4 mg/disc (S. cerevisiae ATCC 9763): 35 mm; zone of inhibition at 0.4 mg/disc (C. albicans ATCC 90028): 31 mm; zone of inhibition at 0.4 mg/disc (C. tropicalis ATCC 750): 21 mm; MBC (S. aureus ATCC 6538P): 100 µg/mL (≈ 595 µM); MBC [7]: 100 µg/mL (≈ 595 µM); zone of inhibition at 0.4 mg/disc (E. faecalis ATCC 29212): 14 mm
OB(O)c1ccc(C(F)(F)F)cc1B(O)O [3e] | 30 mm | 12.5 µg/mL (≈ 53.5 µM) | 25 µg/mL (≈ 107 µM) | 98.8 ± 25.6% | 92.9 ± 2.7% | 64.4 ± 0.4% | 6.25 µg/mL (≈ 26.7 µM) | 50 µg/mL (≈ 214 µM) | 6.25 µg/mL (≈ 26.7 µM) | 12.5 µg/mL (≈ 53.5 µM) | 22 mm | 400 µg/mL (≈ 1710 µM) | 15 mm | 100 µg/mL (≈ 428 µM) | 17 mm | 200 µg/mL (≈ 856 µM) | 21 mm | 200 µg/mL (≈ 856 µM) | 13 mm | 200 µg/mL (≈ 856 µM) | zone of inhibition at 300 µg/disc [1]: 14 mm; zone of inhibition at 0.4 mg/disc (C. krusei ATCC 6258): 23 mm; zone of inhibition at 300 µg/disc [4]: 17 mm; MFC (C. tropicalis IBA 171): 400 µg/mL (≈ 1710 µM); zone of inhibition at 0.4 mg/disc (S. cerevisiae ATCC 9763): 23 mm; MFC (C. albicans ATCC 90028): 400 µg/mL (≈ 1710 µM); zone of inhibition at 0.4 mg/disc (C. tropicalis ATCC 750): 28 mm; MIC [5]: > 400 µg/mL; zone of inhibition at 0.4 mg/disc (E. faecalis ATCC 29212): 14 mm; zone of inhibition at 300 µg/disc [8]: 6 mm
OB(O)c1ccc(F)cc1B(O)O [3c] | – | 100 µg/mL (≈ 544 µM) | 200 µg/mL (≈ 1090 µM) | 97.1 ± 6.9% | 106 ± 4.5% | 82.3 ± 12.9% | 50 µg/mL (≈ 272 µM) | 100 µg/mL (≈ 544 µM) | 100 µg/mL (≈ 544 µM) | 50 µg/mL (≈ 272 µM) | 18 mm | 400 µg/mL (≈ 2180 µM) | 11 mm | 200 µg/mL (≈ 1090 µM) | 13 mm | 100 µg/mL (≈ 544 µM) | 24 mm | 400 µg/mL (≈ 2180 µM) | 12 mm | 400 µg/mL (≈ 2180 µM) | zone of inhibition at 300 µg/disc [1]: 16 mm; zone of inhibition at 300 µg/disc [4]: 20 mm; MIC [5]: > 400 µg/mL; zone of inhibition at 300 µg/disc [8]: 12 mm
